Laboratory results as given in patent US8361998B2, “Compounds and their use as IKACh blockers” (AstraZeneca AB, priority 2010, dated 2013).
Structures can show the parent of a compound that is named as a salt.

Molecular target: T1, human ether-a-go-go-related gene (hERG)-encoded K+ channel (Homo sapiens, UniProt Q12809)
T1 construct: expressed in transfected cells; host or cells: Chinese hamster ovary K1 (CHO) cells
Test: hERG inhibition, IonWorks HT, hERG-expressing CHO cells
Type: cell-based
Description: Inhibition of the human ether-a-go-go-related gene (hERG)-encoded K^+ channel was determined using hERG-expressing Chinese hamster ovary K1 (CHO) cells on a IonWorks™ HT assay platform as described by M. H. Bridgland-Taylor et al. J. of Pharmacological and Toxicological Methods (2006); 54:189-199.

T1 sequence (Q12809 whole entry): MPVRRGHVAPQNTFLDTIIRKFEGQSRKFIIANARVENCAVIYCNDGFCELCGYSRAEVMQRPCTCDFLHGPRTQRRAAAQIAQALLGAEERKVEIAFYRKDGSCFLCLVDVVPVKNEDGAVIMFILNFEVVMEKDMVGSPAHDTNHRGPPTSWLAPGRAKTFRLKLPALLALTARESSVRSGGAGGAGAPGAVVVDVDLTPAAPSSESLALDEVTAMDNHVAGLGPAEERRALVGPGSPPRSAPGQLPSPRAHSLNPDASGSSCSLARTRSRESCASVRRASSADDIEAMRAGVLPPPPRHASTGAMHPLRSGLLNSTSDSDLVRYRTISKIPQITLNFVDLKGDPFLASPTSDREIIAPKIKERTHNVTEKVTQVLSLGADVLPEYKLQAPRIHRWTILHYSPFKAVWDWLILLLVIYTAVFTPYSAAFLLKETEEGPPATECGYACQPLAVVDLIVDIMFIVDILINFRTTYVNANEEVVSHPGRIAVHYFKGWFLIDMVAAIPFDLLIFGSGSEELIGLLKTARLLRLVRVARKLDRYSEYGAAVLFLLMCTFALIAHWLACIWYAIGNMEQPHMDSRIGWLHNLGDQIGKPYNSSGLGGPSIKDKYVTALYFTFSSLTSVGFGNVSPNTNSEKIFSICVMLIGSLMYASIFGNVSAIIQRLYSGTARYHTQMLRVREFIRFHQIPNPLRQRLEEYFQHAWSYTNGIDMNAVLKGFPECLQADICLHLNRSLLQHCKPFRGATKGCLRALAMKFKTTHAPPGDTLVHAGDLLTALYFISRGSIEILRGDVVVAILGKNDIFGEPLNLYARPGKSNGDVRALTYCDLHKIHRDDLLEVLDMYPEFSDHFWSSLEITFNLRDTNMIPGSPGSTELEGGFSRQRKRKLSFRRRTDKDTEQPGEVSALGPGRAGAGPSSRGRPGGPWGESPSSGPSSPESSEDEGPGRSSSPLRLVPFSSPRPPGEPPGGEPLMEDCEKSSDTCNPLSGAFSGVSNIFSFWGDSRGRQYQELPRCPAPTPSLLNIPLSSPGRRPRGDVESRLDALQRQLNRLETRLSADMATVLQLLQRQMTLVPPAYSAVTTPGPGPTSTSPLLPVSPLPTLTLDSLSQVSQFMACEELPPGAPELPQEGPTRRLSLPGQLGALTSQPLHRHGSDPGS

## CCC[C@@H](CN1CCC1)N(C)C(=O)c1ccc(Cl)cc1 [Example 1.2, (S)-N-(1-(Azetidin-1-yl)pentan-2-yl)-4-chloro-N-methylbenzamide]
  IC50: 20 µM

## CCC[C@@H](CN1CCC1)N(C)C(=O)c1ccc(F)c(C)c1 [Example 1.4, (S)-N-(1-(Azetidin-1-yl)pentan-2-yl)-4-fluoro-N,3-dimethyl-benzamide]
  IC50: > 33 µM

## CC(C)[C@@H](CN1CCCC1)N(C)C(=O)c1ccc(F)cc1Cl [Example 1.17, (S)-2-Chloro-4-fluoro-N-methyl-N-(3-methyl-1-(pyrrolidin-1-yl)butan-2-yl)benzamide]
  IC50: > 100 µM

## Cc1cc(C(=O)N(C)[C@H](CN2CCC2)C2CC2)ccc1F [Example 4.1, (S)—N-(2-(Azetidin-1-yl)-1-cyclopropylethyl)-4-fluoro-N,3-dimethylbenzamide]
  IC50: > 33 µM

## CN(C(=O)c1ccc(Br)cc1)[C@H](CN1CC(O)C1)C1CC1 [Example 4.4, (S)-4-Bromo-N-(1-cyclopropyl-2-(3-hydroxyazetidin-1-yl)ethyl)-N-methylbenzamide]
  IC50: > 33 µM

## CC(C)[C@@H](CN1CCC1)N(C)C(=O)c1ccc(Cl)cc1 [Example 5.1, (S)-N-(1-(Azetidin-1-yl)-3-methylbutan-2-yl)-4-chloro-N-methylbenzamide]
  IC50: 76 µM

## CC(C)[C@@H](CN1CCC1)N(C)C(=O)c1ccc(Br)cc1.O=C(O)CCC(=O)O [Example 5.2]
  IC50: 34 µM

## Cc1cc(C(=O)N(C)[C@H](CN2CC(O)C2)C(C)C)ccc1F [Example 6.1, (S)-4-Fluoro-N-(1-(3-hydroxyazetidin-1-yl)-3-methylbutan-2-yl)-N,3-dimethylbenzamide]
  IC50: > 100 µM

## CC(C)[C@@H](CN1CC(O)C1)N(C)C(=O)c1ccc(Cl)cc1 [Example 6.2, (S)-4-Chloro-N-(1-(3-hydroxyazetidin-1-yl)-3-methylbutan-2-yl)-N-methylbenzamide]
  IC50: > 53 µM

## Cc1cc(C(=O)N(C)[C@H](CN2CC(O)C2)C2CC2)ccc1F [Example 7.1, (S)—N-(1-Cyclopropyl-2-(3-hydroxyazetidin-1-yl)ethyl)-4-fluoro-N,3-dimethylbenzamide]
  IC50: > 33 µM

## CN(C(=O)c1ccc(Cl)cc1)[C@H](CN1CC(O)C1)C1CC1 [Example 7.2, (S)-4-Chloro-N-(1-cyclopropyl-2-(3-hydroxyazetidin-1-yl)ethyl)-N-methylbenzamide]
  IC50: > 33 µM

## CN(C(=O)c1ccc(F)c(Cl)c1)[C@H](CN1CC(O)C1)C1CC1 [Example 7.3, (S)-3-Chloro-N-(1-cyclopropyl-2-(3-hydroxyazetidin-1-yl)ethyl)-4-fluoro-N-methylbenzamide]
  IC50: > 33 µM

## CCC[C@@H](CN1CC(O)C1)N(C)C(=O)c1ccc(F)c(F)c1 [Example 8.1, (S)-3,4-Difluoro-N-(1-(3-hydroxyazetidin-1-yl)pentan-2-yl)-N-methylbenzamide]
  IC50: > 100 µM

## CCC[C@@H](CN1CC(O)C1)N(C)C(=O)c1ccc(Cl)cc1 [Example 8.2, (S)-4-Chloro-N-(1-(3-hydroxyazetidin-1-yl)pentan-2-yl)-N-methyl-benzamide, hydrochloride]
  IC50: > 57 µM

## CCC[C@@H](CN1CC(O)C1)N(C)C(=O)c1ccc(F)cc1 [Example 8.6, (S)-4-Fluoro-N-(1-(3-hydroxyazetidin-1-yl)pentan-2-yl)-N-methylbenzamide]
  IC50: > 33 µM

## CC(C)[C@@H](CN1CC[C@H](O)C1)N(C)C(=O)c1ccc(Cl)cc1 [Example 10.2, 4-Chloro-N-((S)-1-((S)-3-hydroxypyrrolidin-1-yl)-3-methylbutan-2-yl)-N-methylbenzamide hemi tartrate]
  IC50: > 33 µM

## Cc1cc(C(=O)N(C)[C@H](CN2CCCC2)C(C)C)ccc1F [Example 12.1, (S)-4-Fluoro-N,3-dimethyl-N-(3-methyl-1-(pyrrolidin-1-yl)butan-2-yl)benzamide-dihydroxysuccinate]
  IC50: > 100 µM

## Cc1cccc(C(=O)N(C)[C@H](CN2CCCC2)C(C)C)c1 [Example 12.2, (S)-1-(2-(N,3-Dimethylbenzamido)-3-methylbutyl)pyrrolidinium 2,3-dihydroxysuccinate]
  IC50: > 33 µM

## CC(C)[C@@H](CN1CCCC1)N(C)C(=O)c1ccc(F)c(Cl)c1 [Example 16.55, (S)-3-Chloro-4-fluoro-N-methyl-N-(3-methyl-1-(pyrrolidin-1-yl)butan-2-yl)benzamide]
  IC50: > 31 µM

## CC(C)[C@@H](CN1CCCC1)N(C)C(=O)c1ccc(Cl)cc1 [Example 18, (S)-1-(2-(4-Chloro-N-methylbenzamido)-3-methylbutyl)pyrrolidinium chloride]
  IC50: > 30 µM

## CC(C)[C@@H](CN1CCCC1)N(C)C(=O)c1ccc(Br)cc1 [Example 19, (S)-1-(2-(4-bromo-N-methylbenzamido)-3-methylbutyl)pyrrolidinium 3-carboxy-2,3-dihydroxypropanoate]
  IC50: 17 µM

## CC[C@H](C)[C@@H](CN1CC(O)C1)N(C)C(=O)c1ccc(C#N)cc1F [Example 29.7, 4-Cyano-2-fluoro-N-((2S,3S)-1-(3-hydroxyazetidin-1-yl)-3-methylpentan-2-yl)-N-methylbenzamide]
  IC50: > 33 µM

## CCCC[C@@H](CN1CC(O)C1)N(C)C(=O)c1ccc(C#N)cc1 [Example 33.4, 4-Cyano-N-[(2S)-1-(3-hydroxyazetidin-1-yl)hexan-2-yl]-N-methylbenzamide]
  IC50: 18 µM

## CCCC[C@@H](CN1CC(O)C1)N(C)C(=O)c1ccc(F)cc1 [Example 33.7, 4-Fluoro-N-[(2S)-1-(3-hydroxyazetidin-1-yl)hexan-2-yl]-N-methylbenzamide]
  IC50: 79 µM

## CC(C)C[C@@H](CN1CC(O)C1)N(C)C(=O)c1ccc(F)c(F)c1 [Example 38.1, 3,4-Difluoro-N-[(2S)-1-(3-hydroxyazetidin-1-yl)-4-methylpentan-2-yl]-N-methylbenzamide]
  IC50: > 33 µM

## CC(C)C[C@@H](CN1CC(O)C1)N(C)C(=O)c1ccc(Cl)cc1 [Example 38.2, 4-Chloro-N-[(2S)-1-(3-hydroxyazetidin-1-yl)-4-methylpentan-2-yl]-N-methylbenzamide]
  IC50: > 33 µM

## CC(C)C[C@@H](CN1CC(O)C1)N(C)C(=O)c1ccc(C#N)cc1F [Example 38.6, 4-Cyano-2-fluoro-N-[(2S)-1-(3-hydroxyazetidin-1-yl)-4-methylpentan-2-yl]-N-methylbenzamide]
  IC50: > 33 µM

## CN(C(=O)c1ccc(C#N)cc1)[C@H](CN1CC(O)C1)C1CCC1 [Example 39.2, (S)-4-Cyano-N-(1-cyclobutyl-2-(3-hydroxyazetidin-1-yl)ethyl)-N-methylbenzamide]
  IC50: 80 µM

## CC[C@@H](CN1CC(O)C1)N(C)C(=O)c1ccc(Cl)cc1 [Example 39.12, (S)-4-Chloro-N-(1-(3-hydroxyazetidin-1-yl)butan-2-yl)-N-methylbenzamide]
  IC50: > 33 µM

## CN(C(=O)c1ccc(Cl)cc1)[C@H](CN1CC(O)C1)C1CCC1 [Example 39.14, (S)-4-Chloro-N-(1-cyclobutyl-2-(3-hydroxyazetidin-1-yl)ethyl)-N-methylbenzamide]
  IC50: > 33 µM

## Cc1cc(C(=O)N(C)[C@H](CN2CC(O)C2)C2CCC2)ccc1F [Example 39.16, (S)—N-(1-Cyclobutyl-2-(3-hydroxyazetidin-1-yl)ethyl)-4-fluoro-N,3-dimethylbenzamide]
  IC50: > 33 µM
